The record followed here is patent publication US11028087B2, “2,6-disubstituted-9-cyclopentyl-9H-purines, use thereof as medicaments, and pharmaceutical compositions” (UNIVERZITA PALACKEHO V OLOMOUCI, priority 2017, dated 2021).

For one experiment, the target named is T1, CDK7Cyclin H/MAT1 (Homo sapiens, UniProt P50613).
T1 construct: purchased ProQinase GmbH
As to the kind of experiment: Kinase inhibition assay with [γ-33P]ATP. To be noted: (YSPTSPS)2KK peptide, 1.5 μM ATP; read-out: IC50 values (μM) CDK7. Type of experiment: biochemical.

The subject of experiment [1] is STAT5 phosphorylation in MV4-11 xenograft. As to the kind of experiment: MV4-11 xenograft target modulation, pSTAT5 immunoblot. The experiment is classed as in vivo, mice. Conditions: single dose 10 mg/kg intraperitoneal, after 24 hours. The method, then: (§1) Female athymic nu/nu mice (8 weeks old) were subcutaneously implanted with 5×10^6 MV4-11 cells in 1:1 mixture with Matrigel (High concentration basement membrane Matrigel, Corning) into the hind flank on day 0. Tumors were allowed to growth to the volume of 500-800 mm^3. Body weight and tumor size were recorded 3 times a week. Mice were randomized to treatment groups, 4 to 5 mice each, for target modulation studies.
(§2) Mice were sacrificed at 2 time points (2 hours and 24 hours) after treatment. Tumors were resected and mechanically disintegrated. Cells were washed twice with PBS (lx), then lysed in ice-cold lysis buffer (10 mM HEPES pH 7.4, 1 mM EDTA, 1 mM EGTA, 5 mM KCl, 1.5 mM MgCl2) supplemented with protease and phosphatase inhibitors (10 mM β-glycerolphosphate; 1 mM NaF; 0.1 mM Na3VO4; 0.1 mM PMSF; 10 μg/ml Leupeptin; 2 μg/ml Aprotinin; 1 mM DTT) and cleared by centrifugation. Samples (50 μg of total protein amount) were separated on SDS-PAGE, followed by transfer of the separated proteins to nitrocellulose membrane.
On the technique in general: Immunoblotting shows a protein as a band on a membrane.

Experiment [2] concerns FLT3 phosphorylation in MV4-11 xenograft. As to the kind of experiment: MV4-11 xenograft target modulation, pFLT3 immunoblot. The experiment is classed as in vivo, mice. The protocol: as §1, §2
Experiment [3] concerns ERK1/2, STAT5 and STAT3 phosphorylation in EOL-1 cells. Briefly: Immunoblotting of signaling downstream of PDGFR in EOL-1 cells. To be noted: 1 hour (FIG. 4). Type of experiment: cell-based. The protocol: (§3) To confirm kinase-inhibitory activity of novel compounds in cells, MV4-11 cells with FLT3-ITD and EOL-1 cells expressing FIP1L1-PDGFRA fusion protein were analyzed upon 1 hour treatment. Treated cells were harvested by centrifugation and homogenized in an extraction buffer (10 mM HEPES pH 7.4, 1 mM EDTA, 1 mM EGTA, 5 mM KC, 1.5 mM MgCl2, 0.5% NP40, supplemented with 1 mM DTT, 1 mM NaF, 0.1 mM Na3VO4, 1 mM PMSF, 0.5 μg/ml Leupeptin, 2 μg/ml Aprotinin) on ice for […]. The homogenates were clarified by centrifugation at 10,000 g for 30 min at 4° C., proteins were quantified by the Bradford method and then diluted to the same concentration. […] of total proteins were separated by SDS-polyacrylamide gel electrophoresis and transferred onto nitrocellulose membranes. Membranes were blocked in 5% BSA in TBS with 0.1% Tween 20 and probed overnight with specific antibodies for FLT3 (clone 8F2), phospho-FLT3 Y589/591 (30D4), phospho-FLT3 Y591 (33G6), phospho-FLT3 Y842 (10A8), phospho-FLT3 Y969 (C24D9), PDGFRA (D1E1E), phospho-PDGFRA Y849/PDGFRB Y857 (C43E9), phospho-PDGFRA Y1018, p44/42 MAPK (ERK1/2), phospho-p44/42 MAPK (ERK1/2) (Thr202/Tyr204), STAT5, Phospho-STAT5(Tyr694), STAT3 (79D7), phospho-STAT3 (Tyr705) (D3A7), MEK1/2 (D1A5), phospho-MEK1/2 (Ser217/221) purchased from Cell Signaling, USA, α-tubulin (DM1A, Sigma Aldrich, USA) and PCNA (PC-10, gifted by Dr. B. Vojtesek). […]

Experiment [4] concerns ERK1/2, STAT5 and STAT3 phosphorylation in MV4-11 cells. As to the kind of experiment: Immunoblotting of signaling downstream of FLT3 in MV4-11 cells. Type of experiment: cell-based. To be noted: 1 hour (FIG. 3). The protocol: as §3
For experiment [5], the system named is FLT3 (FLT3-ITD) in MV4-11 cells. Briefly: Immunoblotting of FLT3 phosphorylation in MV4-11 cells. Type of experiment: cell-based. Conditions: MV4-11 FLT3-ITD cells, 1 hour treatment, immunoblotting (FIG. 1). The protocol:
Cells were exposed for 1 hour to the indicated concentrations of 264 or 270 and then levels of phosphorylations at specific tyrosine residues of FLT3 were analyzed.
To confirm kinase-inhibitory activity of novel compounds in cells, MV4-11 cells with FLT3-ITD and EOL-1 cells expressing FIP1L1-PDGFRA fusion protein were analyzed upon 1 hour treatment. Treated cells were harvested by centrifugation and homogenized in an extraction buffer (10 mM HEPES pH 7.4, 1 mM EDTA, 1 mM EGTA, 5 mM KC, 1.5 mM MgCl2, 0.5% NP40, supplemented with 1 mM DTT, 1 mM NaF, 0.1 mM Na3VO4, 1 mM PMSF, 0.5 μg/ml Leupeptin, 2 μg/ml Aprotinin) on ice for […]. The homogenates were clarified by centrifugation at 10,000 g for 30 min at 4° C., proteins were quantified by the Bradford method and then diluted to the same concentration. […] of total proteins were separated by SDS-polyacrylamide gel electrophoresis and transferred onto nitrocellulose membranes. […]

T1 sequence (P50613 whole entry): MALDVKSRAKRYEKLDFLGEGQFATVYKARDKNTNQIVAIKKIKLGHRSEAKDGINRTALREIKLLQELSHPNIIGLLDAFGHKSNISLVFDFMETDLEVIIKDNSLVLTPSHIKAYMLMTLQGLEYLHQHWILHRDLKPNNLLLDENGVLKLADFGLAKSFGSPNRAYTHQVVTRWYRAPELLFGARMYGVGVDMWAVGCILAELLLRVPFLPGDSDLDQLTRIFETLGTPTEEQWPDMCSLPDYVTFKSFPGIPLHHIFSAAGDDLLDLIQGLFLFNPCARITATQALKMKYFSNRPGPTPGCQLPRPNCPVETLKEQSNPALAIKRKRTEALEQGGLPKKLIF
T1 sequence (P51946 whole entry partner): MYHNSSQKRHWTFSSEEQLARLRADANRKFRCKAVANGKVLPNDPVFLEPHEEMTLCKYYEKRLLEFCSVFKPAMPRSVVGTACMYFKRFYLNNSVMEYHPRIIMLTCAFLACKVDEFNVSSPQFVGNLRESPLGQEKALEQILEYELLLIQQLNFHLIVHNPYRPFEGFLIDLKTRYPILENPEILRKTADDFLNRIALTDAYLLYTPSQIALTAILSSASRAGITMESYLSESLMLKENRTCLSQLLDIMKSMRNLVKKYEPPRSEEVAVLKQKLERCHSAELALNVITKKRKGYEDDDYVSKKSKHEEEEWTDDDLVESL
T1 sequence (P51948 whole entry partner): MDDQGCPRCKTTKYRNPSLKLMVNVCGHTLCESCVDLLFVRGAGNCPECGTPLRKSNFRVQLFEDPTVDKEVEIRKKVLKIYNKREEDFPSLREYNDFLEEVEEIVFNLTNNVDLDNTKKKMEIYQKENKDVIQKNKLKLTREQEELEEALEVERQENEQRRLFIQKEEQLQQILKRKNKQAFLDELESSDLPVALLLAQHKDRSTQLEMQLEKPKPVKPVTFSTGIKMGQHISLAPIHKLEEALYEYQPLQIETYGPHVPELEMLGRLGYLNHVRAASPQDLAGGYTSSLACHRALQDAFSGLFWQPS

The term IC50 denotes the midpoint of a concentration-inhibition curve. Consider `CN1CC2(C1)CN(c1ccc(Nc3nc(NC4CCC(O)CC4)nc4c3ncn4C3CCCC3)cc1)C2` (centres unmarked) [Compound 7], for which the IC50 on CDK7Cyclin H/MAT1 is 0.197 µM.
Consider `NC1CCC(Nc2nc(Nc3ccc(CN4CCOCC4)cc3)c3ncn(C4CCCC4)c3n2)CC1` (centres unmarked) [Compound 264], for which the “reduction of pSTAT5 level in tumor” value in experiment [1] is “more than 95%”. Moreover, in experiment [2] (nu/nu mice, single dose 10 mg/kg intraperitoneal, 2 hours after administration), the “inhibition of pFLT3 in tumor” value is given as 95%. For the same compound, in experiment [2] (single dose 10 mg/kg (264 intraperitoneal, Quizartinib oral gavage), 24 hours), the “pFLT3 level in tumor at 24 hours” value is listed as “the inhibition sustained 24 hours”. In addition, at CDK7Cyclin H/MAT1, the IC50 turned out to be 0.178 µM. In addition, the “phosphorylation of ERK1/2, STAT5 and STAT3” value in experiment [3] and in experiment [4] was “reduced phosphorylation” each time. In experiment [5], the “phosphorylation of tyrosine residues of FLT3 receptor kinase (including Y589, Y591, Y742)” value is on record as “cellular FLT3 dephosphorylation”.
For the compound `NCCCCNc1nc(Nc2ccc(CN3CCOCC3)cc2)c2ncn(C3CCCC3)c2n1` [Compound 270], the “phosphorylation of ERK1/2, STAT5 and STAT3” value in experiment [3] and in experiment [4] was “reduced phosphorylation” in each case. Also, the “phosphorylation of tyrosine residues of FLT3 receptor kinase (including Y589, Y591, Y742)” value in experiment [5] is recorded as “cellular FLT3 dephosphorylation”.
